Results reported in patent US10383943B2, “Compositions and related methods for the treatment of cancer” (South Dakota Board of Regents, priority 2016, dated 2019).

Columns and labels:
[1] = tested on: White blood cell (WBC) counts; test: White blood cell (WBC) toxicity in mice; format: in vivo; conditions: FIG. 10
Text: White blood cell (WBC) counts are important for immune mediated tumor clearance. In order to assess the level of WBC toxicity of induced by A-Platin relative the WBC lose was quantified in mice following treatment with drug along and drug administered in conjunction with radiation.

[2] = tested on: SCC1 cells (HPV-human HNSCC); test: Colony forming assay (crystal violet, A540) in SCC1 cells; format: cell-based; conditions: 10-500 μM, p<0.03 compared to control, FIG. 7
Method: (§1) In order to further assess the effect of A-platin on cancer cell growth, colony forming assays using Head and Neck Squamous Cell Carcinoma (HNSCC) were preformed. Briefly, 10,000 cells were plated in triplicate in 6-well plates per treatment condition. The next day cells were treated with the cisplatin, A-platin, or G-platin at the variable doses. On day 6 from plating, cells were fixed in 70% ethanol and stained with 0.5% crystal violet in 10% ethanol. After sufficient washing and drying, cells were destained in 25% glacial acetic acid, and absorbance of 100 uL of each destain solution was read on a SpectraMax plate reader at 540 nm (A540). A540 is an indirect measure of the amount of crystal violet per well, and thus the number of cells per well.

[3] = tested on: SCC47 cells (HPV+ human HNSCC); test: Colony forming assay (crystal violet, A540) in SCC47 cells; format: cell-based; conditions: FIG. 7
Method: as §1

[4] = tested on: Primary human tonsil epithelial cells (HTE); test: Colony forming assay (crystal violet, A540) in primary HTE cells; format: cell-based; conditions: FIG. 7

| SMILES | white blood cell loss ([1]; drug treatment alone groups) | white blood cell loss ([1]; drug+radiation groups) | cell number relative to control (A540) [2] | cell number relative to control (A540) ([3]; 50-500 μM, p<0.0007 compared to control) | cell number (A540) ([4]; 10-500 μM, p<0.04 compared to control) | cell number relative to control (A540) ([3]; 10-500 μM, p<0.008 compared to control) | cell number (A540) ([4]; 1-500 μM, p<0.007 compared to control) |
| --- | --- | --- | --- | --- | --- | --- | --- |
| N[C@@H](Cc1ccc(N=C(O)CCC(=O)[O][Pt]([NH2])([NH2])([OH])([Cl])[Cl])cc1)C(=O)O [AT-Platin] | less white blood cell loss | less white blood cell loss |  |  |  |  |  |
| N.N.[Cl][Pt][Cl] [Cisplatin, cis-diamminedichloroplatinum(II), reference compound] |  |  | reduced cell number relative to control | reduced cell number relative to control | reduced cell number |  |  |
| [NH2][Pt]([NH2])([OH])([Cl])([Cl])[O]C(=O)CCC(O)=N[C@@H]1C(O)[C@H](O)C(CO)O[C@@H]1O (some centres unmarked) [G-platin] |  |  | reduced cell number relative to control |  |  | reduced cell number relative to control | reduced cell number |
